# Tested on: E. coli TOP10
# Experiment: Suicide expression system (SES) growth inhibition
# Type: cell-based
# Details: Table 5; mixed-motif library, re-tested in the Bioscreen C
row,Substance,Growth inhibition (%)
1,245 (RRRPPRLPRPFPVRPPPRVPRPFPVRP; Synthetic antimicrobial peptide) [compound 245],95
2,246 (RRRPPRLPRPFPVRPPPRVPRPFPVRP; Synthetic antimicrobial peptide) [compound 246],95
3,247 (RRRPPRLPRPFPVRPPPRVPRPLPFRP; Synthetic antimicrobial peptide) [compound 247],93
4,248 (RRRPPRLPRPFPVRPPPRVPRPVPIRP; Synthetic antimicrobial peptide) [compound 248],94
5,249 (RRRPPRLPRPFPVRPPPRVPRPVPIRP; Synthetic antimicrobial peptide) [compound 249],93
6,250 (RRRPPRLPRPIPFRPPPRIPRPIPVRP; Synthetic antimicrobial peptide) [compound 250],96
7,251 (RRRPPRLPRPIPFRPPPRIPRPLPFRP; Synthetic antimicrobial peptide) [compound 251],96
8,252 (RRRPPRLPRPIPFRPPPRIPRPVPVRP; Synthetic antimicrobial peptide) [compound 252],92
9,253 (RRRPPRLPRPIPFRPPPRLPRPIPIRP; Synthetic antimicrobial peptide) [compound 253],91
10,254 (RRRPPRLPRPIPFRPPPRVPRPFPIRP; Synthetic antimicrobial peptide) [compound 254],77
11,255 (RRRPPRLPRPIPIRPPPRFPRPVPFRP; Synthetic antimicrobial peptide) [compound 255],93
12,256 (RRRPPRLPRPIPLRPPPRVPRPIPIRP; Synthetic antimicrobial peptide) [compound 256],91
13,257 (RRRPPRLPRPIPVRPPPRFPRPIPFRP; Synthetic antimicrobial peptide) [compound 257],92
14,258 (RRRPPRLPRPIPVRPPPRFPRPIPFRP; Synthetic antimicrobial peptide) [compound 258],92
15,259 (RRRPPRLPRPIPVRPPPRFPRPIPVRP; Synthetic antimicrobial peptide) [compound 259],98
16,260 (RRRPPRLPRPIPVRPPPRIPRPIPVRP; Synthetic antimicrobial peptide) [compound 260],90
17,261 (RRRPPRLPRPIPVRPPPRIPRPVPFRP; Synthetic antimicrobial peptide) [compound 261],92
18,262 (RRRPPRLPRPIPVRPPPRLPRPVPLRP; Synthetic antimicrobial peptide) [compound 262],93
19,263 (RRRPPRLPRPIPVRPPPRVPRPIPLRP; Synthetic antimicrobial peptide) [compound 263],94
20,264 (RRRPPRLPRPLPFRPPPRFPRPVPVRP; Synthetic antimicrobial peptide) [compound 264],92
21,265 (RRRPPRLPRPLPFRPPPRLPRPFPVRP; Synthetic antimicrobial peptide) [compound 265],94
22,266 (RRRPPRLPRPLPFRPPPRLPRPVPVRP; Synthetic antimicrobial peptide) [compound 266],94

row,Substance,Growth inhibition (%)
1,267 (RRRPPRLPRPLPFRPPPRVPRPFPIRP; Synthetic antimicrobial peptide) [compound 267],94
2,268 (RRRPPRLPRPLPFRPPPRVPRPVPLRP; Synthetic antimicrobial peptide) [compound 268],93
3,269 (RRRPPRLPRPLPFRPPPRVPRPVPVRP; Synthetic antimicrobial peptide) [compound 269],90
4,270 (RRRPPRLPRPLPFRPPPRVPRPVPVRP; Synthetic antimicrobial peptide) [compound 270],90
5,271 (RRRPPRLPRPLPFRPPPRVPRPVPVRP; Synthetic antimicrobial peptide) [compound 271],97
6,272 (RRRPPRLPRPLPIRPPPRFPRPIPVRP; Synthetic antimicrobial peptide) [compound 272],91
7,273 (RRRPPRLPRPLPIRPPPRFPRPVPLRP; Synthetic antimicrobial peptide) [compound 273],92
8,274 (RRRPPRLPRPLPIRPPPRFPRPVPVRP; Synthetic antimicrobial peptide) [compound 274],93
9,275 (RRRPPRLPRPLPIRPPPRLPRPFPVRP; Synthetic antimicrobial peptide) [compound 275],92
10,276 (RRRPPRLPRPLPIRPPPRLPRPVPVRP; Synthetic antimicrobial peptide) [compound 276],94
11,277 (RRRPPRLPRPLPIRPPPRVPRPFPIRP; Synthetic antimicrobial peptide) [compound 277],91
12,278 (RRRPPRLPRPLPIRPPPRVPRPLPFRP; Synthetic antimicrobial peptide) [compound 278],98
13,279 (RRRPPRLPRPLPIRPPPRVPRPLPLRP; Synthetic antimicrobial peptide) [compound 279],91
14,280 (RRRPPRLPRPLPLRPPPRFPRPFPVRP; Synthetic antimicrobial peptide) [compound 280],97
15,281 (RRRPPRLPRPLPLRPPPRFPRPVPLRP; Synthetic antimicrobial peptide) [compound 281],91
16,282 (RRRPPRLPRPLPLRPPPRLPHPIPFRP; Synthetic antimicrobial peptide) [compound 282],95
17,283 (RRRPPRLPRPLPVRPPPRFPRPVPFRP; Synthetic antimicrobial peptide) [compound 283],95
18,284 (RRRPPRLPRPLPVRPPPRFPRPVPVRP; Synthetic antimicrobial peptide) [compound 284],89
19,285 (RRRPPRLPRPLPVRPPPRIPRPFPVRP; Synthetic antimicrobial peptide) [compound 285],91
20,286 (RRRPPRLPRPLPVRPPPRIPRPLPLRP; Synthetic antimicrobial peptide) [compound 286],95
21,287 (RRRPPRLPRPLPVRPPPRLPRPIPIRP; Synthetic antimicrobial peptide) [compound 287],95
22,288 (RRRPPRLPRPLPVRPPPRVPRPFPLRP; Synthetic antimicrobial peptide) [compound 288],96

row,Substance,Growth inhibition (%)
1,289 (RRRPPRLPRPLPVRPPPRVPRPFPVRP; Synthetic antimicrobial peptide) [compound 289],95
2,290 (RRRPPRLPRPLPVRPPPRVPRPLPLRP; Synthetic antimicrobial peptide) [compound 290],94
3,291 (RRRPPRLPRPLPVRPPPRVPRPVPFRP; Synthetic antimicrobial peptide) [compound 291],90
4,292 (RRRPPRLPRPLPVRPPPRVPRPVPFRP; Synthetic antimicrobial peptide) [compound 292],93
5,293 (RRRPPRLPRPVPFRPPPRFPRPFPIRP; Synthetic antimicrobial peptide) [compound 293],93
6,294 (RRRPPRLPRPVPFRPPPRFPRPVPLRP; Synthetic antimicrobial peptide) [compound 294],95
7,295 (RRRPPRLPRPVPFRPPPRIPRPFPLRP; Synthetic antimicrobial peptide) [compound 295],59
8,296 (RRRPPRLPRPVPFRPPPRVPRPIPFRP; Synthetic antimicrobial peptide) [compound 296],88
9,297 (RRRPPRLPRPVPFRPPPRVPRPIPVRP; Synthetic antimicrobial peptide) [compound 297],90
10,298 (RRRPPRLPRPVPFRPPPRVPRPVPLRP; Synthetic antimicrobial peptide) [compound 298],92
11,299 (RRRPPRLPRPVPIRPPPRFPRPIPFRP; Synthetic antimicrobial peptide) [compound 299],96
12,300 (RRRPPRLPRPVPIRPPPRIPRPIPFRP; Synthetic antimicrobial peptide) [compound 300],92
13,301 (RRRPPRLPRPVPIRPPPRVPRPVPLRP; Synthetic antimicrobial peptide) [compound 301],92
14,302 (RRRPPRLPRPVPLRPPPRFPRPVPVRP; Synthetic antimicrobial peptide) [compound 302],82
15,303 (RRRPPRLPRPVPLRPPPRVPRPLPIRP; Synthetic antimicrobial peptide) [compound 303],91
16,304 (RRRPPRLPRPVPVRPPPRFPRPVPIRP; Synthetic antimicrobial peptide) [compound 304],90
17,305 (RRRPPRLPRPVPVRPPPRFPRPVPVRP; Synthetic antimicrobial peptide) [compound 305],90
18,306 (RRRPPRLPRPVPVRPPPRFPRPVPVRP; Synthetic antimicrobial peptide) [compound 306],90
19,307 (RRRPPRLPRPVPVRPPPRVPRPVPFRP; Synthetic antimicrobial peptide) [compound 307],92
20,308 (RRRPPRLPRPVPVRPPPRVPRPVPVRP; Synthetic antimicrobial peptide) [compound 308],96
21,309 (RRRPPRVPRPFPIRPPPRVPRPIPFRP; Synthetic antimicrobial peptide) [compound 309],76
22,310 (RRRPPRVPRPFPIRPPPRVPRPVPVRP; Synthetic antimicrobial peptide) [compound 310],93

# Source: patent publication US7833967B2, “Synthetic antimicrobial polypeptides” (priority 2003, dated 2010)
